According to US10588888B2, “CNS-accessible pharmacological chaperones for treatment of acid β-glucosidase-related disease states” (Children's Hospital Medical Center, priority 2017, dated 2020):
Substitutions are numbered along the chain they refer to. Where two headings read alike, the source gives them in different places.

What was measured:
GCase (WT fibroblasts) = biological target: T1, GCase (WT fibroblasts) (Mus musculus, UniProt P17439); test: Immunofluorescence co-localization of GCase and Lamp1 in WT fibroblasts; format: cell-based; settings: vs untreated cells
T1 construct: Fibroblast cells from wild type (WT) and GCase mutant mice; endogenous in cells; host or cells: wild-type mouse fibroblasts
T1 sequence (P17439 20-515): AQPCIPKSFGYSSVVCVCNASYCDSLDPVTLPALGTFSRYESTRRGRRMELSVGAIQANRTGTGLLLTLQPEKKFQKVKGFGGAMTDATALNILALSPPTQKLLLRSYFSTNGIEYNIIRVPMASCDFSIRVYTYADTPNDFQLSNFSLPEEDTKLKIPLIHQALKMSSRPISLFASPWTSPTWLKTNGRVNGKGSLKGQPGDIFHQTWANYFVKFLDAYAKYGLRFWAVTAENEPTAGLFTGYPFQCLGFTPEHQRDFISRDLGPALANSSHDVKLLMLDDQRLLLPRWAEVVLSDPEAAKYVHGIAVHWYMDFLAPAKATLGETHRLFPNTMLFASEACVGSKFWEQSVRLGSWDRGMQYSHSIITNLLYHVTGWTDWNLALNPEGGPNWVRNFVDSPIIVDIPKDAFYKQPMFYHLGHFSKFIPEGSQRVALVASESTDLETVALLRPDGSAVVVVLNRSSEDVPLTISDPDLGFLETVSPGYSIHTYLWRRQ
Method: (§1) FIG. 5. Increased GCase protein in lysosomes of mouse fibroblasts treated with M chaperone compounds. (A) GCase (green) was co-stained with lysosomal marker, Lamp1 (red). Co-localization of GCase and Lamp1 (orange) indicates lysosomal localization of GCase.
(§2) Fibroblast cells from wild type (WT) and GCase mutant mice, homozygous V394L/V394L (4L/4L) and 4L/4L/with saposin C−/− (4L;C*) were cultured in 10% Bovine Calf Serum/Dulbecco's Modified Eagle's medium (DMEM). The compounds were dissolved in Dimethyl sulfoxide (DMSO) at 5 mM as a stock solution and stored at −20° C. For cell treatment, the stock was diluted with DMEM and added to cells. The cells were incubated with the compounds for 5 days and changed with fresh media with the compound every two days.
(§3) The cells grown on the chamber slides were fixed in 4% paraformaldehyde for 30 mins, followed by washing twice in Phosphate-buffered saline. The cells were permeablized with 0.3% Triton X-100 in Phosphate-buffered saline and washed with Phosphate-buffered saline for three times. After blocking for 30 min in 1.5% BSA/0.5% gelatin diluted in Phosphate-buffered saline, primary antibody, mouse anti-Lamp1 (1:200) and goat anti-mGCase (1:200) were applied to the cells and incubated overnight at 4° C. The signals were detected using Donkey anti-goat-FITC (1:500) and goat anti-mouse-Texas Red (1:500) to the cognate primary antibody. The stained cells were mounted with antifade containing DAPI.

MDR1 (P-gp) = test: MDR1-MDCK assay, blood-brain-barrier penetration potential; format: in vitro ADME; settings: dog; for Papp A→B at 120 min, 5 μM: MDCK-MDR1, pH 7.4, A to B; for Papp B→A at 120 min, 5 μM: MDCK-MDR1, pH 7.4, B to A
Method: (§4) MDR1-MDCK cell monolayers were grown to confluence on collagen-coated, microporous membranes in 12-well assay plates. The permeability assay buffer was Hanks' balanced salt solution containing 10 mM HEPES and 15 mM glucose at a pH of 7.4. The buffer in the receiver chamber also contained 1% bovine serum albumin. The dosing solution concentration was 5 μM of test article in the assay buffer. Cell monolayers were dosed on the apical side (A-to-B) or basolateral side (B-toA) and incubated at 37° C. with 5% CO2 in a humidified incubator. Samples were taken from the donor and receiver chambers at 120 minutes. Each determination was performed in duplicate. The flux of lucifer yellow was also measured post-experimentally for each monolayer to ensure no damage was inflicted to the cell monolayers during the flux period. All samples were assayed by LC-MS/MS using electrospray ionization.
(§5) The apparent permeability (Papp) and percent recovery were calculated as follows: Papp=(dCr/dt)×Vr/(A×CA) Percent Recovery=100×((Vr×Cr^final)+(Vd×Cd^final))/(Vd×CN)
(§6) Where, dCr/dt is the slope of the cumulative concentration in the receiver compartment versus time in μM s^−1; Vr is the volume of the receiver compartment in cm^3; Vd is the volume of the donor compartment in cm^3; A is the area of the insert (1.13 cm^2 for 12-well); CA is the average of the nominal dosing concentration and the measured 120 minute donor concentration in μM; CN is the nominal concentration of the dosing solution in μM; Cr final is the cumulative receiver concentration in M at the end of the incubation period; Cd final is the concentration of the donor in M at the end of the incubation period.
(§7) Efflux ratio (ER) is defined as Papp (B-to-A)/Papp (A-to-B).

MDR1 = test: as above; format: in vitro ADME; settings: dog, 5 μM, 120 minutes
Method: as §4, §5, §6, §7

[1] = test system: MDR1-MDCK cell monolayers; test: as above; format: in vitro ADME; settings: MDR1-MDCK
Method: as §4, §5, §6, §7

WT GCase [2] = biological target: T2, WT GCase (Mus musculus, UniProt P17439); test: Immunoblot of GCase protein in WT fibroblasts; format: cell-based; settings: 10 μM, 5 days, vs untreated cells
T2 construct: Fibroblast cells from wild type (WT) and GCase mutant mice; endogenous in cells; host or cells: wild-type mouse fibroblasts
T2 sequence (P17439 20-515): T1 sequence (P17439 20-515)
Method: as §2
(§8) Cell pellets were collected and washed with Phosphate-buffered saline twice. The pellets were suspended in M-per lysis buffer. Freeze and thaw twice to break down the cell membrane. Protein concentration was determined by the bicinchoninic acid assay. The proteins were resolved on 4-12% NuPAGE gel (Invitrogen) and were transferred to PVDF membrane using iBlot 2 gel transfer device (Life Technologies) following manufactural instruction. The blotted membranes were incubated with Goat anti-mouse GCase (1:1000) in 1.5% BSA/1.5% milk/PBS buffer overnight at 4° C. followed by IRdye Donkey anti-Goat 1:5000. The signals were detected using LI-COR detection system according to manufacturer's instruction.

[3] = biological target: T3, GCase (4L/4L and 4L;C* fibroblasts) (Mus musculus, UniProt P17439, V412L); test: Immunofluorescence co-localization of GCase and Lamp1 in mutant fibroblasts; format: cell-based; settings: vs untreated cells
T3 construct: Fibroblast cells from wild type (WT) and GCase mutant mice; endogenous in cells; host or cells: mouse fibroblasts from V394L/V394L (4L/4L) and 4L/4L; saposin C-/- (4L;C*) mice
T3 sequence (P17439 20-515 V412L): T1 sequence (P17439 20-515) with V393L
Method: as §1, §2, §3

WT GCase [4] = biological target: T2, WT GCase; test: GCase activity in WT fibroblasts treated with compounds; format: cell-based; settings: 5 days, 10 μM, vs untreated cells
Method: as §2
(§9) Cell pellets were collected and washed with Phosphate-buffered saline twice. The cell pellets were homogenized in 1% Na-taurocholate/1% Triton X-100 (Tc/Tx). GCase activity was determined fluorometrically with 4MU-Glc as substrate in 0.25% Tc/Tx diluted in 0.1M citrate phosphate (CP) buffer (pH 5.6) as described. Protein concentrations of cells and tissues were determined by BCA assay using BSA as standard.

[5] = biological target: T4, mutant V394L GCase protein (Mus musculus, UniProt P17439, V412L); test: Immunoblot of GCase protein in mutant fibroblasts; format: cell-based; settings: 4L/4L and 4L;C* fibroblasts, 10 μM, 5 days, vs untreated cells
T4 construct: Fibroblast cells from wild type (WT) and GCase mutant mice; endogenous in cells; host or cells: mouse fibroblasts from V394L/V394L (4L/4L) and 4L/4L; saposin C-/- (4L;C*) mice
T4 sequence (P17439 20-515 V412L): T1 sequence (P17439 20-515) with V393L
Method: as §2, §8

Mutant GCase (V394L) = biological target: T5, Mutant GCase (V394L) (Mus musculus, UniProt P17439, V412L); test: GCase activity in mutant GCase fibroblasts treated with compounds; format: cell-based; settings: for GCase activity (in words): 4L/4L and 4L;C* fibroblasts, 10 μM, vs untreated cells
T5 construct: Fibroblast cells from wild type (WT) and GCase mutant mice; endogenous in cells; host or cells: mouse fibroblasts from V394L/V394L (4L/4L) and 4L/4L; saposin C-/- (4L;C*) mice
T5 sequence (P17439 20-515 V412L): T1 sequence (P17439 20-515) with V393L
Method: (§10) FIG. 1. Screen of small molecules with NCGC607 as a positive control. Mutant GCase (V394L) fibroblasts were incubated with small molecules for 5 days at various concentration.
as §2, §9

[6] = test system: Mutant GCase (V394L) fibroblasts; test: Toxicity in small molecule screen on mutant GCase fibroblasts; format: cell-based, mouse; settings: 5 days, various concentration
Method: as §10, §2

Recombinant GCase = biological target: T6, Recombinant GCase (Homo sapiens, UniProt P04062); test: Recombinant GCase activity with or without compound; format: biochemical; settings: for Inhibition of GCase (in words): recombinant GCase
T6 sequence (P04062 40-536): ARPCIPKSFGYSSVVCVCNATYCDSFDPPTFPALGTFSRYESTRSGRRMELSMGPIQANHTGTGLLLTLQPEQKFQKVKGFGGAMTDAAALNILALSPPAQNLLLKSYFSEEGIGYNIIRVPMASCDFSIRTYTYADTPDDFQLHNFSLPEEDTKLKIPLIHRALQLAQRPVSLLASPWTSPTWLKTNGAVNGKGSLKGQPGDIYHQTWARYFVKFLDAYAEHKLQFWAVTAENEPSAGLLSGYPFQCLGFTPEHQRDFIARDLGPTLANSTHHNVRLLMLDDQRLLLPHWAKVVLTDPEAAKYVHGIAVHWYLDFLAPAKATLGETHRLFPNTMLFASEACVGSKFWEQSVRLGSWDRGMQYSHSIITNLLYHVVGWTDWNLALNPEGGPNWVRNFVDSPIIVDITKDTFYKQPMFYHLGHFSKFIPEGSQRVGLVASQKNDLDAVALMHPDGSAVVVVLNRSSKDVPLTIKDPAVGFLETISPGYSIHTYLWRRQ
Method: FIG. 2. […] Recombinant GCase was incubated with or without compound 216 at various concentration and GCase activity was determined.

[7] = average, 5 μM, read-out: Papp AVE
[8] = replicate 1, 5 μM, read-out: Papp R1
[9] = replicate 2, 5 μM, read-out: Papp R2

Row | Compound | Lysosomal localization of GCase protein (Pearson index, in words) (GCase (WT fibroblasts)) | GCase protein levels (in words) (WT GCase [2]) | Lysosomal localization of GCase protein (Pearson index, in words) [3] | GCase activity (in words) (WT GCase [4]) | GCase protein levels (in words) [5] | GCase activity (in words) (Mutant GCase (V394L); 5 days) | also measured
1 | O=C(COc1ccccc1C(=O)NC[C@@H]1CCCO1)Nc1ccc(Br)cc1 [Compound 8, 2-((4-bromophenylcarbamoyl)methyoxy)-N—(((S)-tetrahydrofuran-2-yl)methyl)benzamide] | enhanced | increased | enhanced | Increased | increased | Increased | Papp A→B at 120 min, 5 μM (MDR1 (P-gp); [7]): 32.1 ×10⁻⁶ cm/s; Papp A→B at 120 min, 5 μM (MDR1 (P-gp); [8]): 33.4 ×10⁻⁶ cm/s; Papp A→B at 120 min, 5 μM (MDR1 (P-gp); [9]): 30.8 ×10⁻⁶ cm/s; Papp B→A at 120 min, 5 μM (MDR1 (P-gp); [7]): 34.4 ×10⁻⁶ cm/s; Papp B→A at 120 min, 5 μM (MDR1 (P-gp); [8]): 31.8 ×10⁻⁶ cm/s; Papp B→A at 120 min, 5 μM (MDR1 (P-gp); [9]): 37 ×10⁻⁶ cm/s; efflux ratio at 120 min, 5 μM (MDR1 (P-gp); MDCK-MDR1, pH 7.4, Papp (B-to-A)/Papp (A-to-B), P-gp): 1.1; recovery at 120 min, 5 μM (MDR1; MDCK-MDR1, pH 7.4, A to B): 77%; recovery at 120 min, 5 μM (MDR1; MDCK-MDR1, pH 7.4, B to A): 86%; Brain Penetration Classification [1]: High; Brain Penetration Classification ([1]; listed as #8): high; Activity in the mutant GCase fibroblasts assay (comparison of stereoisomers) (Mutant GCase (V394L); mutant GCase fibroblasts): better activity than Compound 6
2 | O=C(COc1ccccc1C(=O)NCC1CCCO1)Nc1ccc(Br)cc1 (centres unmarked) [Compound 216] | enhanced | increased | enhanced | Increased | increased | Increased | Toxicity compared to 607 [6]: reduced toxicity; Inhibition of GCase (in words) (Recombinant GCase): non-inhibitory; AC50 (Recombinant GCase; recombinant GCase incubated with compound at various concentration, read-out: AC50, activation effect on GCase): 10.1 µM; Inhibition of GCase (in words) (Recombinant GCase; listed as compound 216): did not inhibit; Activation function on GCase compared to NCGC607 (Mutant GCase (V394L); V394L fibroblasts, 5 days, various concentration): superior
3 | O=C(COc1ccccc1C(=O)NCC1CCCO1)Nc1ccc(Br)cc1 (stereo in doubt) [Compound 6, 2-((4-bromophenylcarbamoyl)methoxy)-N(((R)tetrahydrofuran-2-yl)methyl)benzamide] | enhanced | increased | enhanced | Increased | increased | Increased | 
